According to PMC10643470, “Knockout or inhibition of USP30 protects dopaminergic neurons in a Parkinson’s disease mouse model” (Nature Communications, 2023):
Where two headings read alike, the source gives them in different places.

Tests used:
[1] = system: TOM20-ubiquitylation in control (AHN) iPSC-derived dopaminergic neurons; assay: TOM20-ubiquitylation in control iPSC-derived dopaminergic neurons; type: cell-based, human; conditions: no exogenous stimuli
Text: (§1) Donor-derived DopaNeuron lines were generated from source material provided by the Parkinson’s Progression Markers Initiative (PPMI) through The Michael J. Fox Foundation. Human iPS cells-derived DopaNeurons were purchased from Fujifilm/Cellular Dynamics. Apparently healthy normal (AHN) (catalog # R1088) or alpha-synuclein A53T mutated (A53T) (catalog # R1109) iPSC-derived dopaminergic neurons (dopaneurons) were thawed from liquid nitrogen. 400 000 viable (counted using a cell counter) dopaneurons […] were plated per well into 24 well plates on day 0 in complete maintenance medium (CMM).
(§2) A half-medium change was performed on the cells on Day 3 with CMM. On Day 5 cells were half-medium changed with complete brainphys medium. […] Cells were given half medium changes with or without compounds (depending on whether treatments with compound had started) every 2-3 days.

[2] = system: TOM20-ubiquitylation in alpha-synuclein A53T mutated iPSC-derived dopaminergic neurons; assay: TOM20-ubiquitylation in A53T iPSC-derived dopaminergic neurons; type: cell-based, human; conditions: no exogenous stimuli
Text: as §1, §2

[3] = Mouse pharmacokinetics (IV clearance, oral bioavailability); type: in vivo; conditions: blood
[4] = Mouse blood and prefrontal cortex microdialysis pharmacokinetics (Kpu,u); type: in vivo; conditions: single 10 mg/kg oral dose, at the 60-min time point
Experimental: Mouse Kpu,u estimates were calculated from blood and prefrontal cortex compound profiles following oral dosing of 10 or 30 mg/kg by gavage, with sequential blood sampling from the jugular vein and sequential brain interstitial fluid sampling via a microdialysis probe in the prefrontal cortex.

[5] = molecular target: USP2 (Homo sapiens, UniProt O75604); assay: DUB/cathepsin selectivity biochemical assay
[6] = molecular target: T1, USP21 CD (Homo sapiens, UniProt Q9UK80); assay: DUB/cathepsin selectivity biochemical assay
T1 construct: USP21 CD

[7] = molecular target: USP16 (Homo sapiens, UniProt Q9Y5T5); assay: DUB/cathepsin selectivity biochemical assay
[8] = molecular target: USP25 (Homo sapiens, UniProt Q9UHP3); assay: DUB/cathepsin selectivity biochemical assay
[9] = molecular target: USP6 (Homo sapiens, UniProt P35125); assay: DUB/cathepsin selectivity biochemical assay
[10] = molecular target: USP10 (Homo sapiens, UniProt Q14694); assay: DUB/cathepsin selectivity biochemical assay
[11] = molecular target: USP47 (Homo sapiens, UniProt Q96K76); assay: DUB/cathepsin selectivity biochemical assay
[12] = molecular target: USP11 (Homo sapiens, UniProt P51784); assay: DUB/cathepsin selectivity biochemical assay
[13] = molecular target: YOD1 (Homo sapiens, UniProt Q5VVQ6); assay: DUB/cathepsin selectivity biochemical assay
[14] = molecular target: CEZANNE1 (Homo sapiens, UniProt Q6GQQ9); assay: DUB/cathepsin selectivity biochemical assay
[15] = molecular target: USP35 (Homo sapiens, UniProt Q9P2H5); assay: DUB/cathepsin selectivity biochemical assay
[16] = molecular target: UchL3 (Homo sapiens, UniProt P15374); assay: DUB/cathepsin selectivity biochemical assay
[17] = molecular target: USP9x (Homo sapiens, UniProt Q93008); assay: DUB/cathepsin selectivity biochemical assay
[18] = molecular target: USP46/UAF1 (Homo sapiens, UniProt P62068); assay: DUB/cathepsin selectivity biochemical assay
[19] = molecular target: OTUB2 (Homo sapiens, UniProt Q96DC9); assay: DUB/cathepsin selectivity biochemical assay
[20] = molecular target: BAP1 (Homo sapiens, UniProt Q92560); assay: DUB/cathepsin selectivity biochemical assay
[21] = molecular target: OTUD5(p177S) (Homo sapiens, UniProt Q96G74); assay: DUB/cathepsin selectivity biochemical assay
[22] = molecular target: USP13 (Homo sapiens, UniProt Q92995); assay: DUB/cathepsin selectivity biochemical assay
[23] = molecular target: USP1 (Homo sapiens, UniProt O94782); assay: DUB/cathepsin selectivity biochemical assay
[24] = molecular target: Trabid (Homo sapiens, UniProt Q9UGI0); assay: DUB/cathepsin selectivity biochemical assay
[25] = molecular target: USP20 (Homo sapiens, UniProt Q9Y2K6); assay: DUB/cathepsin selectivity biochemical assay
[26] = molecular target: OTUD6B (Homo sapiens, UniProt Q8N6M0); assay: DUB/cathepsin selectivity biochemical assay
[27] = molecular target: SENP6 (Homo sapiens, UniProt Q9GZR1); assay: DUB/cathepsin selectivity biochemical assay
Sequence of SENP6 (Q9GZR1 whole entry, species assumed): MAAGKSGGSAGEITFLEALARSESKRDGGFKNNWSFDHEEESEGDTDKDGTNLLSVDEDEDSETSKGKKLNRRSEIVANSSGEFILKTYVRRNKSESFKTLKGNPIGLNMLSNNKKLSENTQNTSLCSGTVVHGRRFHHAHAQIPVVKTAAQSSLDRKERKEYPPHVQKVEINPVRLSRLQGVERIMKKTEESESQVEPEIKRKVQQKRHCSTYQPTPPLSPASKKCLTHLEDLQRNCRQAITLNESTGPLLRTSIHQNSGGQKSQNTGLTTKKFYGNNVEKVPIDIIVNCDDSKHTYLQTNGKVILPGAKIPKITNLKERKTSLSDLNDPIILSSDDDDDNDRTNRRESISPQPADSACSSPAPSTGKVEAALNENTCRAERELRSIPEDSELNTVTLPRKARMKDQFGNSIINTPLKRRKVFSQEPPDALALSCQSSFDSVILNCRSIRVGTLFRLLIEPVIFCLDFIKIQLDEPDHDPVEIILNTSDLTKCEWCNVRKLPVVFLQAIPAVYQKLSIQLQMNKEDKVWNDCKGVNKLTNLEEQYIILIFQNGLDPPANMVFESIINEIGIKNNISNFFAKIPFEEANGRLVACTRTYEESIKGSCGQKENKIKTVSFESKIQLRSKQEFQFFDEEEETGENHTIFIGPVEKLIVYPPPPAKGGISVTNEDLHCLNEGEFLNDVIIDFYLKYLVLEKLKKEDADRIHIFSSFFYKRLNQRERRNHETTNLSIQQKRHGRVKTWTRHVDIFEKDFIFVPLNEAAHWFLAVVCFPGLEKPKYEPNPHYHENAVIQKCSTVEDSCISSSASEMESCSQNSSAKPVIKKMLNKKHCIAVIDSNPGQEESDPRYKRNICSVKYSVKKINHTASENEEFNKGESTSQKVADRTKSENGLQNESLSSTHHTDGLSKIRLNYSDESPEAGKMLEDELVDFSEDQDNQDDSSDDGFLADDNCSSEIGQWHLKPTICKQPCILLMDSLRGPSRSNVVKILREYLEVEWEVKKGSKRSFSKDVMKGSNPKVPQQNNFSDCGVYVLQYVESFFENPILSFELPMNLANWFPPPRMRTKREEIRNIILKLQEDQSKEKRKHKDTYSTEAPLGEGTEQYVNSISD

Sequence of USP2 (O75604 whole entry, species assumed): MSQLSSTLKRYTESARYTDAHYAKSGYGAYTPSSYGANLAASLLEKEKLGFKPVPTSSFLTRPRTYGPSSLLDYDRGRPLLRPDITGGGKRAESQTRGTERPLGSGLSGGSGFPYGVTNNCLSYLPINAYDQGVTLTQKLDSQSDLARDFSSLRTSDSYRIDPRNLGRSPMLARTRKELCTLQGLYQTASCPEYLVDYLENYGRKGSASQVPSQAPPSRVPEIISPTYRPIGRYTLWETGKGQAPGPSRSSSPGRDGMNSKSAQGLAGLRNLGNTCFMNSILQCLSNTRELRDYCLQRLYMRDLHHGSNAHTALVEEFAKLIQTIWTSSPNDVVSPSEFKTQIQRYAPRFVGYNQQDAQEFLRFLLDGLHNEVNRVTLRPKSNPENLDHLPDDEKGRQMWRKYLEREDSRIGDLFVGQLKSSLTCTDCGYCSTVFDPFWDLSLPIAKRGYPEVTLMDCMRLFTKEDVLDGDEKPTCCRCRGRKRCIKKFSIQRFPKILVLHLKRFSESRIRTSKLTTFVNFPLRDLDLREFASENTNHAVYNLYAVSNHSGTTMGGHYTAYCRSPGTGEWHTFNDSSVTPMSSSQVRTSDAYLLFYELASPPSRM
Sequence of OTUB2 (Q96DC9 whole entry, species assumed): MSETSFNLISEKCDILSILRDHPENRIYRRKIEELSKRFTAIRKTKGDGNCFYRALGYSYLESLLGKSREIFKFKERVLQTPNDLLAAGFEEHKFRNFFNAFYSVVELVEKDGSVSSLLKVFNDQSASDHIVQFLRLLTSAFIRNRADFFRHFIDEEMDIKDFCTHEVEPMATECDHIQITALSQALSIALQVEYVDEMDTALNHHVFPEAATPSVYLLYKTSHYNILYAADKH
Sequence of USP20 (Q9Y2K6 whole entry, species assumed): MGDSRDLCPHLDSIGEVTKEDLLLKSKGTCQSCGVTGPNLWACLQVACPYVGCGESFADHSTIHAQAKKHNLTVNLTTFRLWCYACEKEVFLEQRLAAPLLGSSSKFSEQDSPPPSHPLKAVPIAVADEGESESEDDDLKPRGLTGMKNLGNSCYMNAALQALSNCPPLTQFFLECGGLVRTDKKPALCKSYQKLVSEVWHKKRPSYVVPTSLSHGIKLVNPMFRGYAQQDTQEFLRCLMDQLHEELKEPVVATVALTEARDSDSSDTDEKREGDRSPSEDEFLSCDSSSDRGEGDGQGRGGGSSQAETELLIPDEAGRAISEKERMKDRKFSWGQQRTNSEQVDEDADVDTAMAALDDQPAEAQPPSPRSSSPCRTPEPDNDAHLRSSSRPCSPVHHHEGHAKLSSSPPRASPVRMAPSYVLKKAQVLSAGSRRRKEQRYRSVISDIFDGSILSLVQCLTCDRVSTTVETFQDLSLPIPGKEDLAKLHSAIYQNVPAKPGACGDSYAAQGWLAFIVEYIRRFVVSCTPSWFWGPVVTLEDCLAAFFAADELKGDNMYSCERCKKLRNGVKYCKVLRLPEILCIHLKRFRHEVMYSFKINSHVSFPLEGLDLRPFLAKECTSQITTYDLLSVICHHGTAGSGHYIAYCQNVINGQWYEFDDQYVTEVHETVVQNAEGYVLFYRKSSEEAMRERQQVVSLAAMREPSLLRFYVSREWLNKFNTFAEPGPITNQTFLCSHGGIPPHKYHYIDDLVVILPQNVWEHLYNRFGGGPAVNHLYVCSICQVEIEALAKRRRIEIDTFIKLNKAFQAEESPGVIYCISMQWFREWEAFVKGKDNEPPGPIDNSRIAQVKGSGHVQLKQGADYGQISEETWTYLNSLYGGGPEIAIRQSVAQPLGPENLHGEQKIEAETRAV
Sequence of BAP1 (Q92560 whole entry): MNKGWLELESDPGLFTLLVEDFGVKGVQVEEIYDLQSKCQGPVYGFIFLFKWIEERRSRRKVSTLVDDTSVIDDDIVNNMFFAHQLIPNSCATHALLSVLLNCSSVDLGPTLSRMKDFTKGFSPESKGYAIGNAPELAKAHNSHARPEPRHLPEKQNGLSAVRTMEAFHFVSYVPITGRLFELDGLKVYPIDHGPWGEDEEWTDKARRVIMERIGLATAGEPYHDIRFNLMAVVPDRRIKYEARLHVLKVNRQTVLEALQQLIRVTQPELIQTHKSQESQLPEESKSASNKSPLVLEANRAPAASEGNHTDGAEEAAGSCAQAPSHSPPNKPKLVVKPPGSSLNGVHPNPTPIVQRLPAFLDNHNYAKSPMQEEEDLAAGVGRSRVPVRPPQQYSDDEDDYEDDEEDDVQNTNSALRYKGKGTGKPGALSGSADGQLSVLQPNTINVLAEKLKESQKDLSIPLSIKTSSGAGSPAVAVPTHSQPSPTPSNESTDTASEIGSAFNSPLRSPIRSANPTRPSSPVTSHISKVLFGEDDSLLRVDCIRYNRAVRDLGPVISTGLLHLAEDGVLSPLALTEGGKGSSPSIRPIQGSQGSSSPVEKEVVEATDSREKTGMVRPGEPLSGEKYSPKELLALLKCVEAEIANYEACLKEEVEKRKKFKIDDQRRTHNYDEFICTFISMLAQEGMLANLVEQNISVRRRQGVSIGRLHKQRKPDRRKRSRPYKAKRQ
Sequence of USP1 (O94782 whole entry, species assumed): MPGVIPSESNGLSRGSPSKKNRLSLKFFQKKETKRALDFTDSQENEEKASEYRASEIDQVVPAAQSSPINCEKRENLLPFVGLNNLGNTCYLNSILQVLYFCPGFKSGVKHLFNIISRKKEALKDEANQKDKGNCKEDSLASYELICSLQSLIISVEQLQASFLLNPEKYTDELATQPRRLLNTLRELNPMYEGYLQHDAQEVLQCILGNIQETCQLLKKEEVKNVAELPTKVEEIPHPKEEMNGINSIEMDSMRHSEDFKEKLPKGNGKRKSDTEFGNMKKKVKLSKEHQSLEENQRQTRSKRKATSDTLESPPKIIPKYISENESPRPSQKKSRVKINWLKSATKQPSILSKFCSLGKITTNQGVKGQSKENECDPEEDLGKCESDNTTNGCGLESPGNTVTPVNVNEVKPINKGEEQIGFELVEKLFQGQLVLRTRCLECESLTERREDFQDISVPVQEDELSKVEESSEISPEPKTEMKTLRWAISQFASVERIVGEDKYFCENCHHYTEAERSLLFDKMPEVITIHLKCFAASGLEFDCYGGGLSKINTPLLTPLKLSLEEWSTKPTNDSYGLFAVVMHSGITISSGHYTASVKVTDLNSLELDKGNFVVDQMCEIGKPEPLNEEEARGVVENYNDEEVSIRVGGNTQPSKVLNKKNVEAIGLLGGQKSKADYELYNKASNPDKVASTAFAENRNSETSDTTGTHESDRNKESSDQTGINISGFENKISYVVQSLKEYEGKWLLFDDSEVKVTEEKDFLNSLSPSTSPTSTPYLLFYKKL
Sequence of USP1 (Q8TAF3 whole entry partner, species assumed): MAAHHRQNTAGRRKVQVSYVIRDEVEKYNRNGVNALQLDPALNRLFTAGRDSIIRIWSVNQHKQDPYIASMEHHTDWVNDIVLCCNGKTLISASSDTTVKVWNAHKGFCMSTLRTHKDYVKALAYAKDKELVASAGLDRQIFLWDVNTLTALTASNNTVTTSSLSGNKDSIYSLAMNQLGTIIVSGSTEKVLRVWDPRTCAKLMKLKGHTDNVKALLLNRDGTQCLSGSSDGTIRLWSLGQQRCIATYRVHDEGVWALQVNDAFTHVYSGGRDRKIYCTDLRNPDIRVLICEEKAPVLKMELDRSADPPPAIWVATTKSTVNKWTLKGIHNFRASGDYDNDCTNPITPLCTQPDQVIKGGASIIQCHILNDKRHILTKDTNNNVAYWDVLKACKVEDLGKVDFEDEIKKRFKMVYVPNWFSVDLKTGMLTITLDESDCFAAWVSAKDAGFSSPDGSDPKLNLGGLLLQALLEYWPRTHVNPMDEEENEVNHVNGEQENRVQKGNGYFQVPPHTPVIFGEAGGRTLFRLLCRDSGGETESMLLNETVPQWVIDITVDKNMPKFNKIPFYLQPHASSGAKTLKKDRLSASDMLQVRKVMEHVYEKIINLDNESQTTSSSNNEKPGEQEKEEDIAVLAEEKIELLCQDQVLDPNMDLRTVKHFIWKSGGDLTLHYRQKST

Question: Which TOM20-ubiquitylation ([1]; control background, 24 h, 1 µM) does the source give for `C[C@@H]1[C@H]2CCN(C(=O)c3ncc(-c4ccnc(C#N)c4)o3)[C@H]2CN1C#N` [MTX115325] here?
Answer: increased TOM20-ubiquitylation

Question: What about the TOM20-ubiquitylation ([1]; control neurons, 7 days at 10 nM, 100 nM or 1 µM) of the same compound?
Answer: caused the upregulation of TOM20-ubiquitylation

Question: What about the TOM20-ubiquitylation ([2]; A53T neurons, 7 days at 10 nM, 100 nM or 1 µM) of the same compound?
Answer: caused the upregulation of TOM20-ubiquitylation

Question: What about the TOM20-ubiquitylation ([2]; A53T αSyn background, 24 h, 1 µM) of the same compound?
Answer: increased TOM20-ubiquitylation

Question: What about the bioavailability ([3]; 10 mg/kg oral gavage vs 2 mg/kg IV) of the same compound?
Answer: 98%

Question: What about the clearance ([3]; IV 2 mg/kg) of the same compound?
Answer: 19.7 mL/min/kg

Question: What about the “Prefrontal cortex free CMax” value [4] of the same compound?
Answer: 528 nM

Question: And the IC50 ([5]; Supplementary Fig. 6a, read-out: Selectivity vs DUBs (IC50), USP2)?
Answer: 24.9 µM

Question: What about the IC50 ([5]; USP2, read-out: IC50) of the same compound?
Answer: 24.9 µM

Question: And the IC50 [6]?
Answer: 60.7 µM

Question: What about the IC50 [7] of the same compound?
Answer: 83.7 µM

Question: What about the IC50 [8] of the same compound?
Answer: 93.2 µM

Question: What about the IC50 [9] of the same compound?
Answer: 96.3 µM

Question: And the IC50 [10]?
Answer: 107 µM

Question: And the IC50 [11]?
Answer: 212 µM

Question: What about the IC50 [12] of the same compound?
Answer: 291 µM

Question: What about the IC50 [13] of the same compound?
Answer: > 300 µM

Question: And the IC50 [14]?
Answer: > 300 µM

Question: And the IC50 [15]?
Answer: > 300 µM

Question: And the IC50 [16]?
Answer: > 300 µM

Question: What about the IC50 [17] of the same compound?
Answer: > 300 µM

Question: What about the IC50 [18] of the same compound?
Answer: > 300 µM

Question: And the IC50 [19]?
Answer: > 300 µM

Question: And the IC50 [20]?
Answer: > 300 µM

Question: And the IC50 [21]?
Answer: > 300 µM

Question: What about the IC50 [22] of the same compound?
Answer: > 300 µM

Question: And the IC50 [23]?
Answer: > 300 µM

Question: And the IC50 [24]?
Answer: > 300 µM

Question: And the IC50 [25]?
Answer: > 300 µM

Question: And the IC50 [26]?
Answer: > 300 µM

Question: What about the IC50 [27] of the same compound?
Answer: > 300 µM
